Among the data in US7829563B2, “Aminoamides as orexin antagonists” (Hoffmann-La Roche Inc., priority 2007, dated 2010) are Kb values, retold here.

Structures can show the parent of a compound that is named as a salt.

The target of this assay is T1, human orexin-2 (hOX2) receptors (Homo sapiens, UniProt O43614).
T1 construct: expressed in transfected cells
T1 sequence (O43614 1-444): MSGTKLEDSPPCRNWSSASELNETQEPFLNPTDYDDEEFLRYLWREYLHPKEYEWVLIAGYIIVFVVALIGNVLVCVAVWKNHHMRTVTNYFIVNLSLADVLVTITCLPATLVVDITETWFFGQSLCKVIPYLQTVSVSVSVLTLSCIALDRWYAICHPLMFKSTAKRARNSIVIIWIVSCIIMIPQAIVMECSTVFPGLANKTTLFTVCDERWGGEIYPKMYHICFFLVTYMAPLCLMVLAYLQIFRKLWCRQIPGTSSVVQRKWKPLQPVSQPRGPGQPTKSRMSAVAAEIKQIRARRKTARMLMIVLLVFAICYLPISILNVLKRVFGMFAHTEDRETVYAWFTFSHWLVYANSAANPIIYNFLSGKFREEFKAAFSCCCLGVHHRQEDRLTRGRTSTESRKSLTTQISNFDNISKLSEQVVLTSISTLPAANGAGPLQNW
In words: Intracellular Ca2+ mobilization assay (FLIPR), antagonism of orexin-A. The format is cell-based. As to conditions: CHO(dHFr−) cells stably expressing hOX2; orexin-A at EC80 as agonist; Kb=IC50/(1+[A]/EC50); read-out: Kb (μM) OX2R (human). In outline: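 Fluo-4-loaded CHO(dHFr−) cells stably expressing hOX2 were pre-incubated 25 min at 37° C with antagonist (11 concentrations, 0.0001-10 μM), then stimulated with orexin-A at daily-determined EC80. Peak FLIPR fluorescence was fitted to the Hill equation for IC50, and Kb was derived as IC50/(1+[A]/EC50).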
Broadly, the Kb is the affinity of an antagonist, worked out from how it opposes an agonist. Turning to `CNC(=O)[C@H](N[C@@H](CCc1ccc(Cl)nc1)c1ccc(F)c(C)c1)c1ccccc1` (racemic) [Example 266, (S,R)-2-[(R,S)-3-(6-Chloro-pyridin-3-yl)-1-(4-fluoro-3-methyl-phenyl)-propylamino]-N-methyl-2-phenyl-acetamide], the antagonist equilibrium constant (Kb) stood at 0.0175 µM.

In the case of `CNC(=O)[C@H](N[C@@H](CCc1ccc(C(F)(F)F)nc1)c1ccc(F)c(C)c1)c1ccc(C)cc1` (racemic) [Example 334, (R,S)-2-[(S,R)-1-(4-Fluoro-3-methyl-phenyl)-3-(6-trifluoromethyl-pyridin-3-yl)-propylamino]-N-methyl-2-p-tolyl-acetamide], the Kb was 0.01 µM.

`CNC(=O)[C@H](N[C@@H](CCc1ccc(C(F)(F)F)cc1)c1cccc(OC(F)F)c1)c1ccc(C)cc1` [Example 389, (R)-2-[(S)-1-(3-Difluoromethoxy-phenyl)-3-(4-trifluoromethyl-phenyl)-propylamino]-N-methyl-2-p-tolyl-acetamide]: the antagonist dissociation constant (Kb) worked out at 0.0048 µM.

In the case of `CNC(=O)[C@H](N[C@@H](CCc1ccc(C(F)(F)F)nc1)c1ccc(C)c(Cl)c1)c1ccccc1` (racemic) [Example 238, (S,R)-2-[(R,S)-1-(3-Chloro-4-methyl-phenyl)-3-(6-trifluoromethyl-pyridin-3-yl)-propylamino]-N-methyl-2-phenyl-acetamide], the antagonist equilibrium constant (Kb) was found to be 0.0196 µM.

Turning to `CNC(=O)[C@H](N[C@@H](CCc1ccc(C(F)(F)F)nc1)c1cc(C)ccc1F)c1ccc(F)cc1` [Example 107, (R)-2-[(S)-1-(2-Fluoro-5-methyl-phenyl)-3-(6-trifluoromethyl-pyridin-3-yl)-propylamino]-2-(4-fluoro-phenyl)-N-methyl-acetamide], the antagonist equilibrium constant (Kb) came to 0.0124 µM.

As to `CNC(=O)[C@H](N[C@H](CCc1cccc(C(F)(F)F)c1)c1ccc(OC)c(OC)c1)c1ccccc1` (racemic) [Example 320, (R,S)-2-[(R,S)-1-(3,4-Dimethoxy-phenyl)-3-(3-trifluoromethyl-phenyl)-propylamino]-N-methyl-2-phenyl-acetamide], the Kb came to 0.0021 µM.

For `CNC(=O)[C@H](N[C@@H](CCc1ccc(OC)cc1)c1ccc(OC)c(OC)c1)c1ccccc1` (racemic) [Example 146, (S,R)-2-[(R,S)-1-(3,4-Dimethoxy-phenyl)-3-(4-methoxy-phenyl)-propylamino]-N-methyl-2-phenyl-acetamide], the antagonist dissociation constant (Kb) worked out at 0.0132 µM.

With `CNC(=O)[C@H](N[C@@H](CCc1ccc(C(F)(F)F)cc1)c1cc(C)on1)c1ccccc1` (racemic) [Example 302, (S,R)—N-Methyl-2-[(R,S)-1-(5-methyl-isoxazol-3-yl)-3-(4-trifluoromethyl-phenyl)-propylamino]-2-phenyl-acetamide], the Kb was 0.0161 µM.

On to `Cc1cc([C@H](CCc2ccc(C(F)(F)F)nc2)N[C@@H](C(=O)NCCO)c2ccccc2)ccc1F` (racemic) [Example 356, (R,S)-2-[(S,R)-1-(4-Fluoro-3-methyl-phenyl)-3-(6-trifluoromethyl-pyridin-3-yl)-propylamino]-N-(2-hydroxy-ethyl)-2-phenyl-acetamide], for which the Kb stood at 0.0044 µM.

Take `CNC(=O)[C@H](N[C@H](CCc1ccc(C(F)(F)F)cc1)c1cc(C)on1)c1ccccc1` (racemic) [Example 301, (S,R)—N-Methyl-2-[(S,R)-1-(5-methyl-isoxazol-3-yl)-3-(4-trifluoromethyl-phenyl)-propylamino]-2-phenyl-acetamide]: the Kb was 0.0116 µM.

Take `CNC(=O)[C@H](N[C@@H](CCc1ccc(C(F)(F)F)cc1)c1ccc2c(c1)OCCN2C)c1ccccc1` (racemic) [Example 78, (S,R)—N-Methyl-2-[(R,S)-1-(4-methyl-3,4-dihydro-2H-benzo[1,4]oxazin-7-yl)-3-(4-trifluoromethyl-phenyl)-propylamino]-2-phenyl-acetamide]: the antagonist dissociation constant (Kb) came out at 0.0127 µM.

Consider `CNC(=O)[C@H](N[C@H](CCc1ccc(C(F)(F)F)cc1)c1ccc(Cl)c(OC)c1)c1ccccc1` (racemic) [Example 176, (S,R)-2-[(S,R)-1-(4-Chloro-3-methoxy-phenyl)-3-(4-trifluoromethyl-phenyl)-propylamino]-N-methyl-2-phenyl-acetamide], for which the Kb was 0.0086 µM.

Regarding `CNC(=O)C(NC(CCc1ccc(C(F)(F)F)cc1)c1sc(C)nc1C)c1ccccc1` (stereo not drawn) [Example 93, 2-[1-(2,4-Dimethyl-thiazol-5-yl)-3-(4-trifluoromethyl-phenyl)-propylamino]-N-methyl-2-phenyl-acetamide], the Kb stood at 0.017 µM.

As to `CNC(=O)[C@H](N[C@H](CCc1ccc(C(F)(F)F)nc1)c1cccc(OC(F)(F)F)c1)c1ccccc1` (racemic) [Example 226, (S,R)—N-Methyl-2-phenyl-2-[(S,R)-1-(3-trifluoromethoxy-phenyl)-3-(6-trifluoromethyl-pyridin-3-yl)-propylamino]-acetamide], the Kb amounted to 0.0195 µM.

With `CNC(=O)[C@H](N[C@@H](CCc1ccc(Cl)cc1)c1ccc(OC)c(OC)c1Cl)c1ccccc1` [Example 98, (R)-2-[(S)-1-(2-Chloro-3,4-dimethoxy-phenyl)-3-(4-chloro-phenyl)-propylamino]-N-methyl-2-phenyl-acetamide], the Kb is 0.0014 µM.

Turning to `CNC(=O)[C@H](N[C@H](CCc1ccc(C(F)(F)F)nc1)c1ccc(C)c(OC)c1)c1ccccc1` (racemic) [Example 252, (S,R)-2-[(S,R)-1-(3-Methoxy-4-methyl-phenyl)-3-(6-trifluoromethyl-pyridin-3-yl)-propylamino]-N-methyl-2-phenyl-acetamide], the antagonist dissociation constant (Kb) came out at 0.0024 µM.

`CNC(=O)[C@H](N[C@@H](CCc1ccc(C(F)(F)F)cc1)c1ccc(OC)c(OC)c1)c1ccc(Cl)cc1` [Example 94, (R)-2-(4-Chloro-phenyl)-2-[(S)-1-(3,4-dimethoxy-phenyl)-3-(4-trifluoromethyl-phenyl)-propylamino]-N-methyl-acetamide]: the antagonist dissociation constant (Kb) is 0.0051 µM.

Take `CNC(=O)[C@@H](N[C@H](CCc1ccc(C(F)(F)F)cc1)c1cccc(OC)c1)c1ccccc1` [Example 222, (S)-2-[(R)-1-(3-Methoxy-phenyl)-3-(4-trifluoromethyl-phenyl)-propylamino]-N-methyl-2-phenyl-acetamide hydrochloride]: the antagonist dissociation constant (Kb) was 0.0171 µM.

On to `CNC(=O)[C@H](N[C@@H](CCc1ccc(C)nc1)c1ccc(F)c(C)c1)c1ccccc1` [Example 262, (R)-2-[(S)-1-(4-Fluoro-3-methyl-phenyl)-3-(6-methyl-pyridin-3-yl)-propylamino]-N-methyl-2-phenyl-acetamide], for which the antagonist dissociation constant (Kb) was determined as 0.0173 µM.

Turning to `CNC(=O)[C@H](N[C@@H](CCc1ccc(C(F)(F)F)cc1)c1ccc2c(c1)CCCO2)c1ccccc1` [Example 113, (R)-2-[(S)-1-Chroman-6-yl-3-(4-trifluoromethyl-phenyl)-propylamino]-N-methyl-2-phenyl-acetamide], the Kb is 0.0089 µM.

As to `CNC(=O)[C@H](N[C@@H](CCc1ccc(C(F)(F)F)nc1)c1ccc(F)c(OC)c1)c1ccccc1` (racemic) [Example 232, (S,R)-2-[(R,S)-1-(4-Fluoro-3-methoxy-phenyl)-3-(6-trifluoromethyl-pyridin-3-yl)-propylamino]-N-methyl-2-phenyl-acetamide], the antagonist dissociation constant (Kb) is 0.0085 µM.
